Where two headings read alike, the source gives them in different places.

This is an account of results in patent US20250241870A1, “OXYRESVERATROL AND DERIVATIVES THEREOF FOR USE IN LIPOLYSIS” (Caliway Biopharmaceuticals Co., Ltd., priority 2024, published 2025).

The nature of series [1]: MTT assay, cell viability rate of 3T3-L1 mature adipocytes. The class given is cell-based. Conditions: mouse. As for the experimental part: (§1) 3T3-L1 cell subculture medium (preadipocytes): DMEM+10% BCS+1% P/S.
(§2) 3T3-L1 cell induction differentiation medium (mature adipocytes): DMI Medium: DMEM+10% FBS+1% P/S+0.5 μM IBMX+0.1 μM dexamethasone+5 μg/mL insulin; and INS Medium: DMEM+10% FBS+1% P/S+5 μg/mL insulin. IBMX stock solution was prepared as follows: 500 mM solution in DMSO diluted and used to prepare the differentiation medium. Dexamethasone stock solution was preprepared as follows: 10 mM solution in EtOH diluted and used to prepare the differentiation medium. Insulin stock solution was prepared as follows: 10 mg/mL solution in double distilled water (ddw) diluted and used to prepare the differentiation medium.
(§3) Steps to induce differentiation: The adipocyte precursors 3T3-L1 cells (purchased from the Food Industry Research and Development Institute, Taiwan; abbreviated as BCRC) were seeded in 12-well plates, such that each well contained 1×10^5 cells.
(§4) MTT assay: After 3T3-L1 cells were induced to differentiate into mature adipocytes for 8 days, Resveratrol or Oxyresveratrol was added for treatment for 24 hours, then the culture medium was replaced with MTT reagent (working concentration: 0.5 mg/mL), and cultured in a 37° C. incubator for 2 hours. After removing the supernatant, DMSO was added to dissolve the purple crystals, and an ELISA reader was used to measure the OD 570 nm absorbance value and OD 630 nm background absorbance value. The background value OD 630 nm was subtracted from the measured value OD 570 nm in each group to obtain the final absorbance value.
(§5) Calculation formula (cell viability rate): After measuring the absorbance value at 570 nm and subtracting the background absorbance at 630 nm, the final absorbance value was multiplied by the […] and divided by the average absorbance value of the Control group for calculation.
(§6) 3T3-L1 preadipocytes and mature adipocytes were cultured using the same cell subculture medium disclosed in Example 1 above. Adipocytes differentiation, MTT assay, and determination cell viability was conducted following the methods disclosed herein. See, e.g. Example 1 above.
(In general: Tetrazolium assays rely on reduction of a dye to a coloured formazan, in cell work by metabolically active cells.)

A further series concerns 3T3-L1 mature adipocytes. The description is as above. The class given is cell-based. As to conditions: 24 hours; for Cell viability compared with DMSO Vehicle group / Effect on adipocytes compared with resveratrol at the same concentration: p<0.001; for Cell viability rate compared with 0.2% DMSO Vehicle group: 20 ppm, 40 ppm and 60 ppm, p<0.001, dose effect; for Effect on adipocytes compared with resveratrol at the same concentration: 40 ppm. As for the experimental part: as §1, §2, §3, §4, §5, §6

Setting [2] is: Cell viability rate, Replicate 1.
Where [3] appears, read: Cell viability rate, Replicate 2.
Setting [4] is: Cell viability rate, Replicate 3.
Setting [5] is: Cell viability rate, Replicate 4.

What is called viability is a read-out of living cells in per cent, often relative to untreated cells. Turning to `COc1ccc(/C=C/c2cc(O)cc(O)c2)cc1O` [IM05, 5-[(E)-2-(3-hydroxy-4-methoxyphenyl)ethenyl]benzene-1,3-diol], the viability at 24 h, 50 ppm is 72.4% in series [1] (3T3-L1 mature adipocytes (differentiated from preadipocytes), 3T3-L1 mature adipocytes, drug 50 ppm, 0.2% DMSO, 24 hours, mean of 4 replicates, read-out: Cell viability rate, Mean); 66.5% in series [1] (3T3-L1 mature adipocytes (differentiated from preadipocytes), 3T3-L1 mature adipocytes, drug 50 ppm, 0.2% DMSO, 24 hours, read-out: Cell viability rate, Replicate 1); 71.2% in series [1] (3T3-L1 mature adipocytes (differentiated from preadipocytes), 3T3-L1 mature adipocytes, drug 50 ppm, 0.2% DMSO, 24 hours, read-out: Cell viability rate, Replicate 2); 73.5% in series [1] (3T3-L1 mature adipocytes (differentiated from preadipocytes), 3T3-L1 mature adipocytes, drug 50 ppm, 0.2% DMSO, 24 hours, read-out: Cell viability rate, Replicate 3); 78.4% in series [1] (3T3-L1 mature adipocytes (differentiated from preadipocytes), 3T3-L1 mature adipocytes, drug 50 ppm, 0.2% DMSO, 24 hours, read-out: Cell viability rate, Replicate 4). In addition, the “Cell viability compared with DMSO Vehicle group” value with 3T3-L1 mature adipocytes (50 ppm) is listed as “significantly decreased”.
Regarding `Oc1cc(O)cc(/C=C/c2ccc(O)cc2O)c1` [Oxyresveratrol, 4-[(E)-2-(3,5-dihydroxyphenyl)ethenyl]benzene-1,3-diol], the viability at 24 h, 20 ppm in series [1] (Average viability (%)) was 76.8 ± 3.27%. In series [1] (Average viability (%)), the viability at 24 h, 40 ppm was found to be 28.65 ± 0.26%. Moreover, the viability at 24 h, 60 ppm in series [1] (Average viability (%)) was 12.5 ± 1.09%. Besides, the viability at 24 h, 50 ppm came out at 39.6% in series [1] (Cell viability rate, Mean); 43.2% in series [1] (setting [2]); 38% in series [1] (setting [3]); 37% in series [1] (setting [4]); 40% in series [1] (setting [5]). Also, the “Cell viability rate compared with 0.2% DMSO Vehicle group” value in the series on 3T3-L1 mature adipocytes is reported as “significantly lower than 0.2% DMSO Vehicle group”. The “Effect on adipocytes compared with resveratrol at the same concentration” value in the series with 3T3-L1 mature adipocytes (listed as OxyR) is “more effective in reducing adipocytes than Res”; in the series on 3T3-L1 mature adipocytes (listed as oxyresveratrol), “better inhibitory effects against adipocytes as compared with resveratrol”. In the series on 3T3-L1 mature adipocytes (50 ppm), the “Effect on adipocytes survival compared with derivatives TriacetylR and IM05” value is “more effective in reducing adipocytes survival than its derivatives”. Further, the “Cell viability compared with DMSO Vehicle group” value with 3T3-L1 mature adipocytes (50 ppm) is given as “significantly decreased”. Moreover, the “Cell viability rate compared with resveratrol at the same concentration” value in the series on 3T3-L1 mature adipocytes (60 ppm) is given as “no significant difference in cell viability rate”.
For the molecule `Oc1ccc(C=Cc2cc(O)cc(O)c2)cc1` [Resveratrol], in series [1] (3T3-L1 mature adipocytes (differentiated from preadipocytes), 3T3-L1 mature adipocytes, drug 20 ppm, 0.2% DMSO, 24 hours, relative to Control, mean ± spread of 3 replicates, read-out: Average viability (%)), the viability at 24 h, 20 ppm amounted to 69.6 ± 1.36%. The viability at 24 h, 40 ppm in series [1] (3T3-L1 mature adipocytes (differentiated from preadipocytes), 3T3-L1 mature adipocytes, drug 40 ppm, 0.2% DMSO, 24 hours, relative to Control, mean ± spread of 3 replicates, read-out: Average viability (%)) was 43.4 ± 1.47%. In addition, the viability at 24 h, 60 ppm in series [1] (3T3-L1 mature adipocytes (differentiated from preadipocytes), 3T3-L1 mature adipocytes, drug 60 ppm, 0.2% DMSO, 24 hours, relative to Control, mean ± spread of 3 replicates, read-out: Average viability (%)) was 14.1 ± 0.6%. In the series with 3T3-L1 mature adipocytes, the “Cell viability rate compared with 0.2% DMSO Vehicle group” value is listed as “significantly lower than 0.2% DMSO Vehicle group”.
Take `CC(=O)Oc1ccc(/C=C/c2cc(OC(C)=O)cc(OC(C)=O)c2)cc1` [TriacetyIR, [4-[(E)-2-(3,5-diacetyloxyphenyl)ethenyl]phenyl] acetate]: the viability at 24 h, 50 ppm in series [1] (Cell viability rate, Mean) is 68.9%; in series [1] (setting [2]) it was 73.2%; in series [1] (setting [3]), 64%; in series [1] (setting [4]), 67.2%; in series [1] (setting [5]), 71.2%. Besides, the “Cell viability compared with DMSO Vehicle group” value with 3T3-L1 mature adipocytes (50 ppm) was “significantly decreased”.
